Measured values from patent publication US12285012B2, “Compositions comprising pyridine carboxylate herbicides with acetolactate synthase (ALS) inhibitor herbicides” (Corteva Agriscience LLC, priority 2018, dated 2025).
Read-outs that look alike come from different tables or passages of the source.

Assays:
spring wheat (TRZAS) = assay type: in vivo, Triticum aestivum; conditions: for Obs % visual injury: TRZAS
Method: (§1) The plants were grown for 7-36 days (d) in a greenhouse with an approximate 14-hour (h) photo-period which was maintained at about 23° C. during the day and 22° C. during the night. Nutrients and water were added on a regular basis and supplemental lighting was provided with overhead metal halide 1000-Watt lamps as necessary. The plants were employed for testing when they reached the second or third true leaf stage.
(§2) The emulsifiable concentrates also included a safener, cloquintocet-mexyl, at 120 grams active ingredient per liter (g ai/L), unless otherwise noted below.
(§3) Control plants were sprayed in the same manner with the solvent blank. All pyridine carboxylate herbicide (component a) application rates are given as “g ae/ha” and all ALS inhibitor (component b) application rates are given as “g ai/ha.”
(§4) The treated plants and control plants were placed in a greenhouse as described above and watered by sub-irrigation to prevent wash-off of the test compounds. After 20-22 d, the condition of the test plants as compared with that of the control plants was determined visually and scored on a scale of 0 to 100 percent where 0 corresponds to no injury and 100 corresponds to complete kill.

spring barley (HORVS) = assay type: in vivo, Hordeum vulgare; conditions: 10 g/ha
Method: as §1, §2, §3, §4

[1] = tested on: common lambsquarters (CHEAL, Chenopodium album L.); assay: Greenhouse postemergence herbicidal effect; assay type: in vivo; conditions: for Obs % visual injury: CHEAL
Method: (§5) Seeds of the desired test plant species were planted in a 90:10% v/v (volume/volume) mixture of PRO-MIX® BX (Premier Tech Horticulture, Quakertown, PA, USA) and PROFILE® GREENS GRADE™ (Profile Products LLC, Buffalo Grove, IL, USA) planting mixture, which typically has a pH of 5.2 to 6.2 and an organic matter content of at least 50 percent, in plastic pots with a surface area of 103.2 square centimeters (cm^2). […] The plants were grown for 7-36 days (d) in a greenhouse with an approximate 14-hour (h) photo-period which was maintained at about 23° C. during the day and 22° C. during the night. Nutrients and water were added on a regular basis and supplemental lighting was provided with overhead metal halide 1000-Watt lamps as necessary. The plants were employed for testing when they reached the second or third true leaf stage.
(§6) Emulsifiable concentrates of each of each pyridine carboxylate herbicide (Compound A or Compound B) were prepared at 100 grams acid equivalent per liter (g ae/L). The emulsifiable concentrates also included a safener, cloquintocet-mexyl, at 120 grams active ingredient per liter (g ai/L), unless otherwise noted below. An aliquot of each emulsifiable concentrate was placed in a 25 mL glass vial and diluted with an aqueous mixture of 1.25% (v/v) ACTIROB® B esterified rapeseed oil (Bayer Crop Science, Research Triangle Park, NC, USA) or MSO® Concentrate with LECI-TECH® methylated soybean oil (Loveland Products, Loveland, CO, USA) to obtain concentrated stock solutions at the highest application rate for each herbicide, based upon a 12 milliliter (mL) application volume at a rate of 187 liters per hectare (L/ha). The concentrated stock solutions were further diluted with an aqueous mixture of 1.25% v/v ACTIROB® B or MSO® Concentrate with LECI-TECH® to obtain stock solutions at reduced application rates for each herbicide. Spray solutions of the herbicide combinations (Compound A or Compound B plus ALS herbicide) were prepared by adding weighed amounts or aliquots of the ALS herbicides to the stock solutions of Compound A or Compound B to form 12-mL spray solutions in two- or three-way combinations.
(§7) The spray solutions were applied to the plant material with an overhead Mandel track sprayer equipped with 8002E nozzles calibrated to deliver 187 L/ha over an application area of 0.503 square meters (m^2) at a spray height of 18 inches (43 centimeters (cm)) above the average plant canopy. Control plants were sprayed in the same manner with the solvent blank. All pyridine carboxylate herbicide (component a) application rates are given as “g ae/ha” and all ALS inhibitor (component b) application rates are given as “g ai/ha.”
as §4

[2] = tested on: kochia (KCHSC, Kochia scoparia); assay: Greenhouse postemergence herbicidal effect; assay type: in vivo; conditions: for Obs % visual injury: KCHSC
Method: as §5, §6, §7, §4

[3] = tested on: Russian thistle (SASKR, Salsola kali); assay: Greenhouse postemergence herbicidal effect; assay type: in vivo; conditions: 10 g/ha
Method: as §1, §2, §3, §4

[4] = tested on: pigweed (AMARE, Amaranthus retroflexus); assay: Greenhouse postemergence herbicidal effect; assay type: in vivo; conditions: for Obs % visual injury: AMARE
Method: as §1, §2, §3, §4

[5] = tested on: wild chamomile (MATCH, Matricaria chamomilla); assay: Greenhouse postemergence herbicidal effect; assay type: in vivo
Method: as §1, §2, §3, §4

[6] = tested on: Canadian thistle (CIRAR, Cirsium arvense); assay: Greenhouse postemergence herbicidal effect; assay type: in vivo; conditions: for Obs % visual injury: CIRAR
Method: as §1, §2, §3, §4

[7] = tested on: chickweed (STEME, Stellaria media); assay: Greenhouse postemergence herbicidal effect; assay type: in vivo; conditions: for Obs % visual injury: STEME
Method: as §1, §2, §3, §4

[8] = tested on: wild pansy (VIOTR, Viola tricolor); assay: Greenhouse postemergence herbicidal effect; assay type: in vivo; conditions: for Obs % visual injury: VIOTR
Method: as §1, §2, §3, §4

[9] = tested on: wild buckwheat (POLCO, Polygonum convolvulus); assay: Greenhouse postemergence herbicidal effect; assay type: in vivo; conditions: for Obs % visual injury: POLCO
Method: as §1, §2, §3, §4

[10] = tested on: broad-leaf dock (RUMOB, Rumex obtusifolius); assay: Greenhouse postemergence herbicidal effect; assay type: in vivo; conditions: for Obs % visual injury: RUMOB
Source text: (§8) Seeds of the desired test plant species were planted in a 90:10% v/v (volume/volume) mixture of PRO-MIX® BX (Premier Tech Horticulture, Quakertown, PA, USA) and PROFILE® GREENS GRADE™ (Profile Products LLC, Buffalo Grove, IL, USA) planting mixture, which typically has a pH of 5.2 to 6.2 and an organic matter content of at least 50 percent, in plastic pots with a surface area of 103.2 square centimeters (cm^2). In some aspects, to ensure good germination and healthy plants, a fungicide treatment and/or other chemical or physical treatment was applied. The plants were grown for 7-36 days (d) in a greenhouse with an approximate 14-hour (h) photo-period which was maintained at about 23° C. during the day and 22° C. during the night. Nutrients and water were added on a regular basis and supplemental lighting was provided with overhead metal halide 1000-Watt lamps as necessary. The plants were employed for testing when they reached the second or third true leaf stage.
as §6, §7, §4

[11] = tested on: large crabgrass (DIGSA, Digitaria sanguinalis); assay: Greenhouse postemergence herbicidal effect; assay type: in vivo; conditions: DIGSA
Source text: as §8, §6, §7, §4

[12] = tested on: winter rape (BRSNW, Brassica napus); assay: Greenhouse postemergence herbicidal effect; assay type: in vivo; conditions: Halosulfuron 8.75 g/ha
Method: as §1, §2, §3, §4

[13] = tested on: wild mustard (SINAR, Sinapis arvensis); assay: Greenhouse postemergence herbicidal effect; assay type: in vivo; conditions: Halosulfuron 8.75 g/ha
Method: as §1, §2, §3, §4

[14] = tested on: velvetleaf (ABUTH, Abutilon theophrasti); assay: Greenhouse postemergence herbicidal effect; assay type: in vivo; conditions: 8.75 g/ha
Source text: as §8, §6, §7, §4

[15] = tested on: common sunflower (HELAN, Helianthus annuus); assay: Greenhouse postemergence herbicidal effect; assay type: in vivo; conditions: 8.75 g/ha
Source text: as §8, §6, §7, §4

[16] = tested on: ivyleaf morningglory (IPOHE, Ipomoea hederacea); assay: Greenhouse postemergence herbicidal effect; assay type: in vivo; conditions: 8.75 g/ha
Source text: as §8, §6, §7, §4

[17] = tested on: soybean (GLXMA, Glycine max); assay: Greenhouse postemergence herbicidal effect; assay type: in vivo; conditions: 8.75 g/ha
Source text: as §8, §6, §7, §4

flupyrsulfuron
% visual injury, Obs (spring wheat (TRZAS); 10 g/ha): 0%
Obs % visual injury (spring wheat (TRZAS); Flupyrsulfuron 10 g/ha): 15%
% visual injury, Obs (spring barley (HORVS)): 8%
% visual injury, Obs ([1]; 10 g/ha): 75%
Obs % visual injury ([1]; Flupyrsulfuron 10 g/ha): 63%
% visual injury, Obs ([2]; 10 g/ha): 15%
Obs % visual injury ([2]; Flupyrsulfuron 10 g/ha): 30%
% visual injury, Obs [3]: 45%
Obs % visual injury ([4]; Flupyrsulfuron 10 g/ha): 97%
% visual injury, Obs ([5]; 10 g/ha): 83%
Obs % visual injury ([6]; Flupyrsulfuron 10 g/ha): 84%
Obs % visual injury ([7]; Flupyrsulfuron 10 g/ha): 80%
Obs % visual injury ([8]; Flupyrsulfuron 10 g/ha): 8%
Obs % visual injury ([9]; Flupyrsulfuron 10 g/ha): 91%
Obs % visual injury ([10]; Flupyrsulfuron 10 g/ha): 70%
Obs % visual injury ([11]; Flupyrsulfuron 10 g/ha): 0%

halosulfuron
% visual injury, Obs ([1]; 8.75 g/ha): 0%
% visual injury ([1]; Halosulfuron 8.75 g/ha): 10%
% visual injury, Obs ([2]; 8.75 g/ha): 0%
% visual injury ([2]; Halosulfuron 8.75 g/ha): 15%
% visual injury, Obs ([4]; 8.75 g/ha): 40%
% visual injury ([4]; Halosulfuron 8.75 g/ha): 95%
% visual injury ([5]; Halosulfuron 8.75 g/ha): 78%
% visual injury, Obs ([6]; 8.75 g/ha): 10%
% visual injury ([6]; Halosulfuron 8.75 g/ha): 40%
% visual injury, Obs ([7]; 8.75 g/ha): 0%
% visual injury [12]: 88%
% visual injury, Obs ([8]; 8.75 g/ha): 15%
% visual injury, Obs ([9]; 8.75 g/ha): 5%
% visual injury ([9]; Halosulfuron 8.75 g/ha): 63%
% visual injury [13]: 95%
% visual injury, Obs ([10]; 8.75 g/ha): 0%
% visual injury, Obs [14]: 95%
% visual injury, Obs [15]: 100%
% visual injury, Obs [16]: 0%
% visual injury, Obs [17]: 78%

pyriminobac
Obs % visual injury (spring wheat (TRZAS); Pyriminobac methyl 30 g/ha): 0%
Obs % visual injury ([1]; Pyriminobac methyl 30 g/ha): 20%
Obs % visual injury ([2]; Pyriminobac methyl 30 g/ha): 33%
Obs % visual injury ([4]; Pyriminobac methyl 30 g/ha): 93%
Obs % visual injury ([6]; Pyriminobac methyl 30 g/ha): 8%
Obs % visual injury ([7]; Pyriminobac methyl 30 g/ha): 15%
Obs % visual injury ([8]; Pyriminobac methyl 30 g/ha): 5%
Obs % visual injury ([9]; Pyriminobac methyl 30 g/ha): 80%
Obs % visual injury ([10]; Pyriminobac methyl 30 g/ha): 65%
Obs % visual injury ([11]; Pyriminobac methyl 30 g/ha): 0%
